Source: US9771369B2, “Compounds and methods for kinase modulation, and indications therefor” (Plexxikon Inc., priority 2014, dated 2017)

Biological target: c-kit mutant D816V (Homo sapiens (Human), UniProt P10721, D816V/DEL694-753)
Assay: c-Kit mutant D816V biochemical assay (AlphaScreen kinase activity)
Procedure: The c-kit mutant D816V (or kinase domain thereof) is an active kinase in AlphaScreen. IC50 values are determined with respect to inhibition of c-Kit mutant D816V kinase activity, where inhibition of phosphorylation of a peptide substrate is measured as a function of compound concentration. Compounds to be tested were dissolved in DMSO to a concentration of 30 mM. These were diluted […] of DMSO (4 mM) and 1 μl was added to an assay plate. These were then serially diluted 1:3 (50 μl to […] DMSO) for a total of 8 points. Plates were prepared such that each kinase reaction is […] in 1× kinase buffer (25 mM HEPES, pH 7.2, 8 mM MgCl2, 2 mM MnCl2, 50 mM NaCl, 0.01% Brij, 1 mM DTT, 0.01% BSA), 5% DMSO and 10 μM ATP. Substrate was 30 nM biotin-(E4Y)10 (EMD Millipore, Cat#12-440). C-kit mutant D816V kinase was at 0.75 ng per sample. After incubation of the kinase reaction for 30 minutes at room temperature, 5 μl of donor beads (Streptavidin coated beads (Perkin Elmer Life Science) final concentration 7.5 μg/ml) in stop buffer (25 mM Hepes pH 7.5, 100 mM EDTA, 0.01% BSA) was added, the sample was mixed and incubated for 30 minutes at room temperature before adding […] of acceptor beads (PY30 coated beads (Perkin Elmer Life Science) final concentration 7.5 μg/ml) in stop buffer. The samples were incubated for 60 minutes at room temperature and the signal per well was read on EnVision reader. Phosphorylated substrate results in binding of the PY30 antibody and association of the donor and acceptor beads such that signal correlates with kinase activity. The signal vs. compound concentration was used to determine the IC50.
Recombinant c-kit mutant D816V (residues 551-934, kinase insertion domain residues 694-753 deleted) with a 6×-histidine N-terminal tag (SEQ ID NO: 3) was expressed in E. coli Arctic Express (DE3) RIL (Stratagene). Cells were grown in Terrific Broth (TB) media to an OD600 of 0.6 at 37° C. at which temperature was reduced to 10° C., protein was induced with 1.0 mM IPTG for 18 hours and harvested by centrifugation at 8000×g for 30 minutes. Cells were re-suspended in 0.1M KPO4 pH 8.0, 250 mM NaCl, 10% Glycerol, 0.75% NP-40, 25 mM Imidazole, 5 mM BME with 0.2 mg/ml Lysosyme, 2.0 mM PMSF, 25 μg/ml DNAse I, incubated in ice for 30 minutes and lyzed with a cell disruptor (MicroFluidics). The lysate was clarified by centrifugation at 30,000×g for 2 hours. The protein was captured with Talon resin (Clontech). Contaminating proteins were washed off with 25 mM Tris-HCl pH 8.3, 250 mM NaCl, 15% Glycerol, 1% Triton X-100, and protein eluted using 100 mM EDTA. The protein was further purified using Gel Filtration column 26/600 Superdex 300 (GE) in 50 mM Tris-HCl , pH 8.0, 250 mM NaCl, 15% Glycerol, 5 mM BME. The protein was aliquoted and flash-frozen in liquid Nitrogen.

Sequence of c-kit mutant D816V (P10721 other isoform, or with tags, fused parts or gaps D816V/del 694-753): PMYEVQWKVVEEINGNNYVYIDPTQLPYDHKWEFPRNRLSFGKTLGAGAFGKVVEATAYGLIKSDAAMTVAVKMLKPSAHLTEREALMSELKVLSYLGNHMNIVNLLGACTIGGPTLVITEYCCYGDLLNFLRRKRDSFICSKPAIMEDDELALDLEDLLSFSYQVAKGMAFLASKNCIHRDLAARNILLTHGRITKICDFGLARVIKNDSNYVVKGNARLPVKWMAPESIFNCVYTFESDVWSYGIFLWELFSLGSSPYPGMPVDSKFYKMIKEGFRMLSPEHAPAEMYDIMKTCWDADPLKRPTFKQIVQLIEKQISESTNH

SMILES	IC50 [µM]
Cc1nc(C2CCN(c3ncnc4[nH]c(-c5ccc(F)cc5)cc34)CC2)[nH]c1-c1cccc(OC(F)(F)F)c1 [P-3011, 6-(4-fluorophenyl)-4-[4-[4-methyl-5-[3-(trifluoromethoxy)phenyl]-1H-imidazol-2-yl]-1-piperidyl]-7H-pyrrolo[2,3-d]pyrimidine]	0.0001 to 1
Fc1ccc(-c2cc3c(N4CCC(c5nnc(-c6cccc(OC(F)F)c6)[nH]5)CC4)ncnc3[nH]2)cc1 [P-3204, 4-[4-[5-[3-(difluoromethoxy)phenyl]-4H-1,2,4-triazol-3-yl]-1-piperidyl]-6-(4-fluorophenyl)-7H-pyrrolo[2,3-d]pyrimidine]	0.0001 to 1
COc1cc(-c2cc3c(N4CCC(c5nc(C)c(-c6ccc(C)s6)[nH]5)CC4)ncnc3[nH]2)ccn1 [P-3117, 6-(2-methoxy-4-pyridyl)-4-[4-[4-methyl-5-(5-methyl-2-thienyl)-1H-imidazol-2-yl]-1-piperidyl]-7H-pyrrolo[2,3-d]pyrimidine]	0.0001 to 1
CCOc1ccc(-c2[nH]c(C3(CC)CCN(c4ncnc5[nH]c(C)cc45)CC3)nc2C)cc1C [P-3142, 4-[4-[5-(4-ethoxy-3-methyl-phenyl)-4-methyl-1H-imidazol-2-yl]-4-ethyl-1-piperidyl]-6-methyl-7H-pyrrolo[2,3-d]pyrimidine]	0.0001 to 1
CCOc1ccc(-c2[nH]c(C3(C)CCN(c4ncnc5[nH]c(C)cc45)CC3)nc2C)cc1C [P-3099, 4-[4-[5-(4-ethoxy-3-methyl-phenyl)-4-methyl-1H-imidazol-2-yl]-4-methyl-1-piperidyl]-6-methyl-7H-pyrrolo[2,3-d]pyrimidine]	0.0001 to 1
Cc1cc2c(N3CCC(C)(c4nc(C)c(-c5ccc(C(F)(F)F)cc5)[nH]4)CC3)ncnc2[nH]1 [P-3165, 6-methyl-4-[4-methyl-4-[4-methyl-5-[4-(trifluoromethyl)phenyl]-1H-imidazol-2-yl]-1-piperidyl]-7H-pyrrolo[2,3-d]pyrimidine]	0.0001 to 1
COc1ccc(-c2[nH]c(C3CCN(c4ncnc5[nH]c(C)cc45)CC3)nc2C)cc1 [P-3130, 4-[4-[5-(4-methoxyphenyl)-4-methyl-1H-imidazol-2-yl]-1-piperidyl]-6-methyl-7H-pyrrolo[2,3-d]pyrimidine]	1 to 10
Cc1nc(C2(C)CCN(c3ncnc4[nH]c(-c5ccc(C#N)cc5)cc34)CC2)[nH]c1-c1ccc2c(c1)OCO2 [P-3159, 4-[4-[4-[5-(1,3-benzodioxol-5-yl)-4-methyl-1H-imidazol-2-yl]-4-methyl-1-piperidyl]-7H-pyrrolo[2,3-d]pyrimidin-6-yl]benzonitrile]	0.0001 to 1
Cc1nc(C2CCN(c3ncnc4[nH]c(-c5cnn(C(F)F)c5)cc34)CC2)[nH]c1-c1ccc(F)cc1 [P-3107, 6-[1-(difluoromethyl)pyrazol-4-yl]-4-[4-[5-(4-fluorophenyl)-4-methyl-1H-imidazol-2-yl]-1-piperidyl]-7H-pyrrolo[2,3-d]pyrimidine]	0.0001 to 1
COc1cccc(-c2[nH]c(C3(C)CCN(c4ncnc5[nH]c(-c6cnn(C(F)F)c6)cc45)CC3)nc2C)c1 [P-3168, 6-[1-(difluoromethyl)pyrazol-4-yl]-4-[4-[5-(3-methoxyphenyl)-4-methyl-1H-imidazol-2-yl]-4-methyl-1-piperidyl]-7H-pyrrolo[2,3-d]pyrimidine]	0.0001 to 1
COc1cccc(-c2[nH]c(C3(C)CCN(c4ncnc5[nH]c(C)cc45)CC3)nc2C)c1 [P-3166, 4-[4-[5-(3-methoxyphenyl)-4-methyl-1H-imidazol-2-yl]-4-methyl-1-piperidyl]-6-methyl-7H-pyrrolo[2,3-d]pyrimidine]	0.0001 to 1
Cc1nc(C2CCN(c3ncnc4[nH]c(-c5ccc(C#N)cc5)cc34)CC2)[nH]c1-c1ccc2c(c1)OCCO2 [P-3132, 4-[4-[4-[5-(2,3-dihydro-1,4-benzodioxin-6-yl)-4-methyl-1H-imidazol-2-yl]-1-piperidyl]-7H-pyrrolo[2,3-d]pyrimidin-6-yl]benzonitrile]	0.0001 to 1
Cc1nc(C2CCN(c3ncnc4[nH]c(-c5ccc(C#N)cc5)cc34)CC2)[nH]c1-c1ccc(OC(F)F)cc1 [P-3113, 4-[4-[4-[5-[4-(difluoromethoxy)phenyl]-4-methyl-1H-imidazol-2-yl]-1-piperidyl]-7H-pyrrolo[2,3-d]pyrimidin-6-yl]benzonitrile]	0.0001 to 1
Cc1nc(C2CCN(c3ncnc4[nH]c(-c5cnn(C(F)F)c5)cc34)CC2)[nH]c1-c1ccc(OC(F)F)cc1 [P-3115, 4-[4-[5-[4-(difluoromethoxy)phenyl]-4-methyl-1H-imidazol-2-yl]-1-piperidyl]-6-[1-(difluoromethyl)pyrazol-4-yl]-7H-pyrrolo[2,3-d]pyrimidine]	0.0001 to 1
COc1cc(-c2cc3c(N4CCC(c5nc(C)c(-c6ccc(C)c(OC)c6)[nH]5)CC4)ncnc3[nH]2)ccn1 [P-3104, 4-[4-[5-(3-methoxy-4-methyl-phenyl)-4-methyl-1H-imidazol-2-yl]-1-piperidyl]-6-(2-methoxy-4-pyridyl)-7H-pyrrolo[2,3-d]pyrimidine]	0.0001 to 1
CCC1(c2nc(C)c(-c3ccc(OC)c(C)c3)[nH]2)CCN(c2ncnc3[nH]c(C)cc23)CC1 [P-3141, 4-[4-ethyl-4-[5-(4-methoxy-3-methyl-phenyl)-4-methyl-1H-imidazol-2-yl]-1-piperidyl]-6-methyl-7H-pyrrolo[2,3-d]pyrimidine]	0.0001 to 1
COc1cccc(-c2[nH]c(C3CCN(c4ncnc5[nH]c(-c6ccc(C#N)cc6)cc45)CC3)nc2C(F)(F)F)c1 [P-3124, 4-[4-[4-[5-(3-methoxyphenyl)-4-(trifluoromethyl)-1H-imidazol-2-yl]-1-piperidyl]-7H-pyrrolo[2,3-d]pyrimidin-6-yl]benzonitrile]	0.0001 to 1
CCOc1ccc(-c2[nH]c(C3CCN(c4ncnc5[nH]c(-c6cnn(C(F)F)c6)cc45)CC3)nc2C)cc1C [P-3139, 6-[1-(difluoromethyl)pyrazol-4-yl]-4-[4-[5-(4-ethoxy-3-methyl-phenyl)-4-methyl-1H-imidazol-2-yl]-1-piperidyl]-7H-pyrrolo[2,3-d]pyrimidine]	0.0001 to 1
COc1cc(-c2[nH]c(C3CCN(c4ncnc5[nH]c(-c6ccc(C#N)cc6)cc45)CC3)nc2C)ccc1C [P-3106, 4-[4-[4-[5-(3-methoxy-4-methyl-phenyl)-4-methyl-1H-imidazol-2-yl]-1-piperidyl]-7H-pyrrolo[2,3-d]pyrimidin-6-yl]benzonitrile]	0.0001 to 1
COc1ccc(-c2[nH]c(C3(C)CCN(c4ncnc5[nH]c(-c6ccc(OC)nc6)cc45)CC3)nc2C)cc1 [P-3156, 4-[4-[5-(4-methoxyphenyl)-4-methyl-1H-imidazol-2-yl]-4-methyl-1-piperidyl]-6-(6-methoxy-3-pyridyl)-7H-pyrrolo[2,3-d]pyrimidine]	0.0001 to 1
COc1cccc(-c2[nH]c(C3(C)CCN(c4ncnc5[nH]c(-c6ccc(OC)nc6)cc45)CC3)nc2C)c1 [P-3169, 4-[4-[5-(3-methoxyphenyl)-4-methyl-1H-imidazol-2-yl]-4-methyl-1-piperidyl]-6-(6-methoxy-3-pyridyl)-7H-pyrrolo[2,3-d]pyrimidine]	0.0001 to 1
COc1ccc(-c2[nH]c(C3CCN(c4ncnc5[nH]c(C)cc45)CC3)nc2C)cc1C [P-3128, 4-[4-[5-(4-methoxy-3-methyl-phenyl)-4-methyl-1H-imidazol-2-yl]-1-piperidyl]-6-methyl-7H-pyrrolo[2,3-d]pyrimidine]	0.0001 to 1
Cc1cc2c(N3CCC(c4nc(C)c(-c5ccc6c(c5)OC(F)(F)O6)[nH]4)CC3)ncnc2[nH]1 [P-3127, 4-[4-[5-(2,2-difluoro-1,3-benzodioxol-5-yl)-4-methyl-1H-imidazol-2-yl]-1-piperidyl]-6-methyl-7H-pyrrolo[2,3-d]pyrimidine]	1 to 10
COc1cc(-c2cc3c(N4CCC(c5nc(C)c(-c6ccc7c(c6)OC(F)(F)O7)[nH]5)CC4)ncnc3[nH]2)ccn1 [P-3111, 4-[4-[5-(2,2-difluoro-1,3-benzodioxol-5-yl)-4-methyl-1H-imidazol-2-yl]-1-piperidyl]-6-(2-methoxy-4-pyridyl)-7H-pyrrolo[2,3-d]pyrimidine]	0.0001 to 1
